Reference: ChEMBL document CHEMBL1201862, “PubChem BioAssay data set” (2004)
Calls of active or inactive are those of the source.

Assays:
Beta-galactosidase = Beta-galactosidase (Escherichia coli, UniProt Q8VNN2); test: Dose response counterscreen for EBI2 assay utilizing the enzyme, b-galactosidase.; assay type: functional
[1] = target: T1, Trace amine-associated receptor 1 (Homo sapiens, UniProt Q96RJ0); test: Counterscreen for agonists of the human trace amine associated receptor 1 (hTAAR1): Fluorescence-based cell-based high throughput dose response assay to identify hTAAR1 agonist that also desensitize TAAR1 receptor response.; assay type: functional
T1 sequence (Q96RJ0 whole entry): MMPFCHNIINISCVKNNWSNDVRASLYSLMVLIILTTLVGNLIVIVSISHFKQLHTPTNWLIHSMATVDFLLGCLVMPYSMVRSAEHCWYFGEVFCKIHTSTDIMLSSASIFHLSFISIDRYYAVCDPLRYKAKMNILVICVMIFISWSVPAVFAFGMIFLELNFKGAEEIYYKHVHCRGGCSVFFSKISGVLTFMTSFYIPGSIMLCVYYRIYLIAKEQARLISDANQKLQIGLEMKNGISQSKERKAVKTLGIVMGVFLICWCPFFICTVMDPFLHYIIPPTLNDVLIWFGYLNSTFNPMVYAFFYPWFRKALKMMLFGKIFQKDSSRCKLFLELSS

cells [2] = assay type: functional, cell-based
cells [3] = assay type: functional, cell-based; remark: listed apart in the source
[4] = target: T1, Trace amine-associated receptor 1; test: Fluorescence-based cell-based high throughput dose response assay to identify agonists of the human trace amine associated receptor 1 (TAAR1).; assay type: functional
[5] = target: T2, Histone-lysine N-methyltransferase NSD2 (Homo sapiens, UniProt O96028); assay type: biochemical
T2 sequence (O96028 whole entry): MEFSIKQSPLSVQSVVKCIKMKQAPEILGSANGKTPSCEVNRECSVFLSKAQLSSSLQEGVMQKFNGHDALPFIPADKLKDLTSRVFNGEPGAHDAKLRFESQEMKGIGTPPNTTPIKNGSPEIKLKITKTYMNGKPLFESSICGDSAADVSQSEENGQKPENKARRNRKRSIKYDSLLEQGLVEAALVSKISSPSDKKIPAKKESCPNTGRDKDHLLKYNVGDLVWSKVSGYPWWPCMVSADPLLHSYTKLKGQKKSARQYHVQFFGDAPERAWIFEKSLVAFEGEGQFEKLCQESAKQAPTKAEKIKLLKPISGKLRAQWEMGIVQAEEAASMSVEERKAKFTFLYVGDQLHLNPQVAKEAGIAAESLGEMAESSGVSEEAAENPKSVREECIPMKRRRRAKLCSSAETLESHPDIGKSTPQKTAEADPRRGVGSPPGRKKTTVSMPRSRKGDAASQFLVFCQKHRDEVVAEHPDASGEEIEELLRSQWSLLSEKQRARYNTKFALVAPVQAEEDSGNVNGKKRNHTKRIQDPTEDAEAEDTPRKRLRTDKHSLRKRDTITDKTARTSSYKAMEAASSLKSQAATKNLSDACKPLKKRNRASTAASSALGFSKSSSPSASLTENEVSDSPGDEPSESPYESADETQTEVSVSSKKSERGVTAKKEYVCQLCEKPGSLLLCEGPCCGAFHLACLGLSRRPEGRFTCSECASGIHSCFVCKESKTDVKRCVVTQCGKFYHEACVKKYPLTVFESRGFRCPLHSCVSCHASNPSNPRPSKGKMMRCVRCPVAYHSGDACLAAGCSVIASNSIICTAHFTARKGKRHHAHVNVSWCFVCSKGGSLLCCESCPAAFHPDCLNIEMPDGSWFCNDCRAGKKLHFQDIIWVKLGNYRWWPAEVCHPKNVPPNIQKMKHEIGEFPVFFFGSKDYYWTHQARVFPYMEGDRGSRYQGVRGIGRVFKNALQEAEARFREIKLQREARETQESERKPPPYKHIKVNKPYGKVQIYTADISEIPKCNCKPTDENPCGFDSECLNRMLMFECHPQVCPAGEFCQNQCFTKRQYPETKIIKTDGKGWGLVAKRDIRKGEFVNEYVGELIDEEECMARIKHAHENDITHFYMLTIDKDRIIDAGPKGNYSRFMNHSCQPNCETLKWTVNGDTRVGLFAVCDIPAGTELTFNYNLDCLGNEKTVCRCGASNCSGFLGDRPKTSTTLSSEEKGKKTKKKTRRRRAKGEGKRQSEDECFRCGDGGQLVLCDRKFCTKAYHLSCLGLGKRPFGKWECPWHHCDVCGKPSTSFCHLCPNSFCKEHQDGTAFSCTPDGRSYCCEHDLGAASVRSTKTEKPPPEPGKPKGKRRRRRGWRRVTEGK

[6] = target: DNA dC->dU-editing enzyme APOBEC-3G (Homo sapiens, UniProt Q9HC16); assay type: functional;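 note: Dose-response counterscreen measuring inhibition of APOBEC3G DNA deaminase activity, run while confirming APOBEC3A inhibitors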
[7] = target: T3, Zinc finger protein mex-5 (Caenorhabditis elegans, UniProt Q9XUB2); test: potency of MEX-5 RNA-binding blockers – biochemical, C. elegans, fluorescence polarization, dose response (AID 1960)
T3 sequence (Q9XUB2 whole entry): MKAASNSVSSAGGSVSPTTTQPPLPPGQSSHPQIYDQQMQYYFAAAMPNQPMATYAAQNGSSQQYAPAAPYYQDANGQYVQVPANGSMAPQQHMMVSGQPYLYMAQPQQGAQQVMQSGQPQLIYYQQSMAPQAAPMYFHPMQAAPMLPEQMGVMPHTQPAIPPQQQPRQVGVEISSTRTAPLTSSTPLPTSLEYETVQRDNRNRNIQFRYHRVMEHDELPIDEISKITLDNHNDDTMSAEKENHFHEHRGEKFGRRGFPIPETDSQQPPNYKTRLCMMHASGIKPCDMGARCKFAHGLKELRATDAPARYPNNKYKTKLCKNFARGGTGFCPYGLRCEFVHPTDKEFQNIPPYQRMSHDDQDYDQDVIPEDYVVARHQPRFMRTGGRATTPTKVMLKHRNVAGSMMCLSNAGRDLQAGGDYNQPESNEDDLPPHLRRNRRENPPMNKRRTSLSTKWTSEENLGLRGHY

Caspase-6 = target: T4, Caspase-6 (Homo sapiens, UniProt P55212); test: inhibition of CASP6 peptide cleavage – biochemical, VEID-R110 fluorescence, cherry-pick, dose response (AID 720632)
T4 sequence (P55212 whole entry): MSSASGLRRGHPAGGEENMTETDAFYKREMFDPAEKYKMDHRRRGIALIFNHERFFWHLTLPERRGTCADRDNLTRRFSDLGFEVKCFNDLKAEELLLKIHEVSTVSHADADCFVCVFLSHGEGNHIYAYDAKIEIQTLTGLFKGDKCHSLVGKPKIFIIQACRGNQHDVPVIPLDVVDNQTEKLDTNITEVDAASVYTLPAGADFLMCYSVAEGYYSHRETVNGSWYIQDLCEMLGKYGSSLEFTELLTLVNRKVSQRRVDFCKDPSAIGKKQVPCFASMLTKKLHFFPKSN

[8] = target: T5, Small ubiquitin-related modifier 1 (Homo sapiens, UniProt P63165); test: SUMO1 protein interaction blockers, potency – biochemical, fluorescence polarization, uHTS hits, dose response (AID 624382); assay type: functional; conditions: read-out: IC50_Mean
Large T antigen = Large T antigen (Simian virus 40, UniProt P03070); assay type: functional, Betapolyomavirus macacae;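 note: Confirmatory-stage PubChem screen for compounds that inhibit SV40 T antigen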
[9] = target: T6, RNA-binding protein pos-1 (Caenorhabditis elegans, UniProt G5EF15); test: disruptors of C. elegans POS-1 RNA interaction – biochemical, fluorescence polarization, dose response (AID 1964);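 note: purified POS-1 fused to maltose binding protein made in E. coli; potency of compounds blocking POS-1 binding to fluorescent RNA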
T6 sequence (G5EF15 whole entry): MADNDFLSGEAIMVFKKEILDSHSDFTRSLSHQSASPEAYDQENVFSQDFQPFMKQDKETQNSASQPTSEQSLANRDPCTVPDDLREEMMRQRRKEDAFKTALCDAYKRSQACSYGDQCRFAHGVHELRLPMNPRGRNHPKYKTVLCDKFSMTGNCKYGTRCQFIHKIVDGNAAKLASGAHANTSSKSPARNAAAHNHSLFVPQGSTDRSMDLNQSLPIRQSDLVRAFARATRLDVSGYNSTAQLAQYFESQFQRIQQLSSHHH

[10] = target: DNA dC->dU-editing enzyme APOBEC-3A (Homo sapiens, UniProt P31941); test: Dose Response confirmation of small molecule APOBEC3A DNA Deaminase Inhibitors via a fluorescence-based single-stranded DNA deaminase assay. [Related pubchem assays (depositor defined):AID493011, AID493024]; assay type: functional
[11] = target: T5, Small ubiquitin-related modifier 1; test: SUMO1 protein-protein binding blockers, potency – biochemical, FRET, dose response (AID 624383); assay type: functional; conditions: read-out: IC50_Mean
[12] = viability of uninfected HEp-2 cells – cell-based, HTS, cytotoxicity control for RSV inhibitor project, dose response (AID 2410); assay type: functional; conditions: human respiratory syncytial virus
[13] = target: Endoplasmic reticulum aminopeptidase 1 (Homo sapiens, UniProt Q9NZ08); test: inhibition of human ERAP1 enzyme activity – biochemical, cherry-pick, set 2, plate reader, dose response (AID 743314)
Vero = test: viability loss in Vero cells – cell-based, plate reader, cherry-pick samples, cytotoxicity control, dose response (AID 687020); assay type: functional; conditions: Chlorocebus sabaeus
[14] = T. cruzi growth inhibition in host cells, dose response, cell-based, plate reader, dry powder, set 2 (AID 652275); assay type: functional
SN12K1 = test: cells; assay type: functional; conditions: Homo sapiens
[15] = target: FAD-linked sulfhydryl oxidase ALR (Homo sapiens, UniProt P55789); test: ALR-catalysed DTT oxidation blockers – biochemical, H2O2 detection, luminescence, cherry-pick, dose response (AID 493248)
P388 = test: cells; assay type: functional; conditions: Mus musculus
Cytochrome P450 1A2 = target: T7, Cytochrome P450 1A2 (Homo sapiens, UniProt P05177);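 note: PubChem cytochrome P450 panel assay, CYP1A2 panel member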
T7 sequence (P05177 whole entry): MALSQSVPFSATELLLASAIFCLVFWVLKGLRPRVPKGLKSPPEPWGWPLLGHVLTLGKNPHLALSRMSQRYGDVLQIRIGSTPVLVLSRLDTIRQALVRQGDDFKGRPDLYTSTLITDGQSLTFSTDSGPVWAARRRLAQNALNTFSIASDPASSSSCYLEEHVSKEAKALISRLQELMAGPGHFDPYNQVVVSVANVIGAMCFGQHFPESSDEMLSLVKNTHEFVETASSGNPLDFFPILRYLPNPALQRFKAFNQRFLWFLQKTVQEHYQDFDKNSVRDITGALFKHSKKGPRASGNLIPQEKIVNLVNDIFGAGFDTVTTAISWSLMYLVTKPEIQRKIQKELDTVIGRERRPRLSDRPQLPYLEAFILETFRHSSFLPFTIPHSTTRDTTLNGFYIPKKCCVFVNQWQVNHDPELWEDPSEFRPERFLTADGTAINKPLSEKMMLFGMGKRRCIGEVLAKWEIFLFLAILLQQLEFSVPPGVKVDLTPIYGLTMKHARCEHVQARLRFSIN

P388/ADR = test: cells; assay type: functional; conditions: Mus musculus

T5 sequence (P63165 whole entry): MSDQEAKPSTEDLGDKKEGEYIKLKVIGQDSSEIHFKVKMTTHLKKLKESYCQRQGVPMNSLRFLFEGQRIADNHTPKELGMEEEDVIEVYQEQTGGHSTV
Sequence of Endoplasmic reticulum aminopeptidase 1 (Q9NZ08 whole entry): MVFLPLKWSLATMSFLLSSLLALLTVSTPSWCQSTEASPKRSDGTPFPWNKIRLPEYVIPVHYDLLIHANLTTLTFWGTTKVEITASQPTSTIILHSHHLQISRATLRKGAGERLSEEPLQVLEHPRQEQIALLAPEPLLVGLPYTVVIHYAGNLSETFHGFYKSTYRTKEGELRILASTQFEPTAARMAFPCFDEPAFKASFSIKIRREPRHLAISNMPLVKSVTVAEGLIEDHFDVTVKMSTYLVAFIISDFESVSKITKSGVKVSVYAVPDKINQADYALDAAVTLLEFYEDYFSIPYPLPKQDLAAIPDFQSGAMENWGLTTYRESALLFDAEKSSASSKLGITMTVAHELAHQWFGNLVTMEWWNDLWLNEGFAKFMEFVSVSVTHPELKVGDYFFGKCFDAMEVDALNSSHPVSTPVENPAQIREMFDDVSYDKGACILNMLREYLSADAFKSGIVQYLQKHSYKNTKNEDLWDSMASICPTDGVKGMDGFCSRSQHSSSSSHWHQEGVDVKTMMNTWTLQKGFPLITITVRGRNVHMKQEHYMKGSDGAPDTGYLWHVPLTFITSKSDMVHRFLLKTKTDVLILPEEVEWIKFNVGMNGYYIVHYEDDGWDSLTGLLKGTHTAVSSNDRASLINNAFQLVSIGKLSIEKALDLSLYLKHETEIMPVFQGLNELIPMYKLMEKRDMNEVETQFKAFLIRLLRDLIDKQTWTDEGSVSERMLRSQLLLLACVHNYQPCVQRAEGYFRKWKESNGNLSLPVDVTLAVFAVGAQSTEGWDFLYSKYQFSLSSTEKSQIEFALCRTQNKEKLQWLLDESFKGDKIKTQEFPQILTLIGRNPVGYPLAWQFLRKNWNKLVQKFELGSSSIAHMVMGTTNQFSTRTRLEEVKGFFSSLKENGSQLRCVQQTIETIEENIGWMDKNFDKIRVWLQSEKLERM
Sequence of Beta-galactosidase (Q8VNN2 whole entry): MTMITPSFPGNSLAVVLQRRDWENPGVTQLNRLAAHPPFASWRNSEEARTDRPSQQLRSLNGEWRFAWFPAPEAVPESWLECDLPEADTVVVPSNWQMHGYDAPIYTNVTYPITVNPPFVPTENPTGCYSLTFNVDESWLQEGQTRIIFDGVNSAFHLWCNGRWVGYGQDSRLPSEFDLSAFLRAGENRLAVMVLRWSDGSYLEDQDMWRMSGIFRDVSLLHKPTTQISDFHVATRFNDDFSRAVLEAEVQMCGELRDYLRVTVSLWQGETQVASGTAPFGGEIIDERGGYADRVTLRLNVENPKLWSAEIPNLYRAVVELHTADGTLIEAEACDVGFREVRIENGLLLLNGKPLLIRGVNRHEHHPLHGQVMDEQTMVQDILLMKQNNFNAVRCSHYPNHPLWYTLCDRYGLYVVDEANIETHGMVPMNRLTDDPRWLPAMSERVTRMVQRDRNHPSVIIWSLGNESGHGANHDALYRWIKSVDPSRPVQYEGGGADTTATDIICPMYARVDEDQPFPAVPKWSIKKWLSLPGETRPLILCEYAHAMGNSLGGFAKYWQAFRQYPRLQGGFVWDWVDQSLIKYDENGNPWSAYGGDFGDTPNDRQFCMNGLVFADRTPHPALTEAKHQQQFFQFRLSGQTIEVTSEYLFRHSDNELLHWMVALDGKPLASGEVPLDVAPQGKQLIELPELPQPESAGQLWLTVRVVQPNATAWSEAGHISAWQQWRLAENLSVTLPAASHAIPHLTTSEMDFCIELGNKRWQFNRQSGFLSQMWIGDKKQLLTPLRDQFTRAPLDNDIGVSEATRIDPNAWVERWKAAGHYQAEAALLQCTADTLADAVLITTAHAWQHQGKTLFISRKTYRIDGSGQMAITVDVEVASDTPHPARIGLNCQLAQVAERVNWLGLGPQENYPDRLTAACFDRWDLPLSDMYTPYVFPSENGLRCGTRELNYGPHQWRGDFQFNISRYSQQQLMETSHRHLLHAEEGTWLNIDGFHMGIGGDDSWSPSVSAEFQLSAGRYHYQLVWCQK
Sequence of Large T antigen (P03070 whole entry, the tested form may be a part): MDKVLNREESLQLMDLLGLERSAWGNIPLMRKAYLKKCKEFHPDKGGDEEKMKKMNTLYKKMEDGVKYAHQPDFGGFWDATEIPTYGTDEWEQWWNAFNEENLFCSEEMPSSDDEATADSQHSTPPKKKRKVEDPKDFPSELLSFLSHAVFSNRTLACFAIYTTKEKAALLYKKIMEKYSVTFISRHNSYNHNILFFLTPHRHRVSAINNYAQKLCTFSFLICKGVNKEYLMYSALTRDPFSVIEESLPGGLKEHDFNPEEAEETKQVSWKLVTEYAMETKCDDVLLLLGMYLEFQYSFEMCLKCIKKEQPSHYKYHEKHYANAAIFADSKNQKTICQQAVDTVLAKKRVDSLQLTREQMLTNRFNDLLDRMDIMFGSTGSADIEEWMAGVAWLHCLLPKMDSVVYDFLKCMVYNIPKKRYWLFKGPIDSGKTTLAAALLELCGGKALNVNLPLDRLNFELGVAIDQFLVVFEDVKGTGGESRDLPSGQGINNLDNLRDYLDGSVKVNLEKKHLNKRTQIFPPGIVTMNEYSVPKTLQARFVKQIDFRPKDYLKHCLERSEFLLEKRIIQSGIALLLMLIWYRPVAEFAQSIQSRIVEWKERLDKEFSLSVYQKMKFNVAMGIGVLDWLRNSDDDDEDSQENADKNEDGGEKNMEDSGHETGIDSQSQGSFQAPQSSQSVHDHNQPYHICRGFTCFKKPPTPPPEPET
Sequence of DNA dC->dU-editing enzyme APOBEC-3G (Q9HC16 whole entry): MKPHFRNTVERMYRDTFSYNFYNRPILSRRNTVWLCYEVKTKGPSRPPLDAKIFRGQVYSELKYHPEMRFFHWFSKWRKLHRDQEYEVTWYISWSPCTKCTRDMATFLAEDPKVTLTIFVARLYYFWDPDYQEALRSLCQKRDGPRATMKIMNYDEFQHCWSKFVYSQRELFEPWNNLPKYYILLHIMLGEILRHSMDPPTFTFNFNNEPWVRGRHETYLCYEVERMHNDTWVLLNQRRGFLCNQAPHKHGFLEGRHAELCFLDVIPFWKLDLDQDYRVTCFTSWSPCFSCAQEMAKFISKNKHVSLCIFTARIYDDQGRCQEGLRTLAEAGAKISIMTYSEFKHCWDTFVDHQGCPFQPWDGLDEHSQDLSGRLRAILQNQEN
Sequence of FAD-linked sulfhydryl oxidase ALR (P55789 whole entry): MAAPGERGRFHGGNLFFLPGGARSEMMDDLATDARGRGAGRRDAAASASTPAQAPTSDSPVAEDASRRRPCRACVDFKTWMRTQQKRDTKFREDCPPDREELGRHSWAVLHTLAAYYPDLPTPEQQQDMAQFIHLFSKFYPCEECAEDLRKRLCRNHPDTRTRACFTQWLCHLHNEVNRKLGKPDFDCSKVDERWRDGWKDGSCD
Sequence of DNA dC->dU-editing enzyme APOBEC-3A (P31941 whole entry): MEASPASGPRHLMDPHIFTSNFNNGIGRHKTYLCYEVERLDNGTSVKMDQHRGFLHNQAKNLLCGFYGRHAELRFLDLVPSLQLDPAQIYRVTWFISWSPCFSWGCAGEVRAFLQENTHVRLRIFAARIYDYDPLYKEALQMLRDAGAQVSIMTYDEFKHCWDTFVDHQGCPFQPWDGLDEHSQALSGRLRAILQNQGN

O=C(c1cc2ccccc2o1)N1CCN(S(=O)(=O)c2ccc(Cl)s2)CC1
IC50 (Beta-galactosidase): > 80 µM (inactive)

O=C(O)C1C2CCC(C2)C1C(=O)NCCc1ccc(F)cc1 (configuration not stated)
IC50 [1]: > 29.9 µM (inactive) | IC50 (cells [2]): > 29.9 µM (inactive) | EC50 (cells [3]): > 29.9 µM (inactive) | EC50 [4]: 14.8 µM (inactive)

Nc1ccc(Nc2ccccc2)c(S(=O)(=O)O)c1
AC50 [5]: 8.41 µM (active) | IC50 [6]: 34.1 µM (active) | EC50 [7]: 34 µM (active) | AC50 (Caspase-6): 1.22 µM (active) | IC50 [8]: > 66.6 µM (inactive) | IC50 (Large T antigen): 7.15 µM (active) | EC50 [9]: 108 µM (active) | IC50 [10]: 16.5 µM (active) | IC50 [11]: 12.8 µM (active)

Cc1c(-c2ccccc2)c(=O)oc2cc(O)ccc12
CC50 [12]: 42.4 µM (active) | AC50 [13]: 4.79 µM (active)

O=C(CSc1nnc(-c2ccc(O)cc2)n1Cc1ccccc1)NNC(=O)c1ccc(Br)cc1
IC50 (Beta-galactosidase): > 80 µM (inactive)

O=C(Nc1ccccc1)Nc1ccno1
IC50 [1]: 4.63 µM (active) | IC50 (cells [2]): > 29.9 µM (inactive) | EC50 (cells [3]): > 29.9 µM (inactive) | EC50 [4]: 4.65 µM (active)

COc1ccc(C(CNC(=O)COc2cc(C)ccc2Cl)N2CCCCC2)cc1 (configuration not stated)
AC50 (Vero): 17.6 µM (active)

COCCNc1nc(Nc2ccccc2Cl)c2sccc2n1
AC50 (Vero): 6.94 µM (active)

C#CCNC(=O)C[C@@H]1C[C@@]2(C(=O)OC)CCCCC=C2N(Cc2cccc3ccccc23)C1=O
AC50 (Vero): 36.6 µM (active)

COc1cccc(C(=O)N[C@@H](Cc2cccnc2)C(=O)N2CCC[C@H]2C(=O)NCCc2ccccc2Cl)c1
IC50 [1]: 4.58 µM (active) | IC50 (cells [2]): > 29.9 µM (inactive) | EC50 (cells [3]): > 29.9 µM (inactive) | EC50 [4]: 2.18 µM (active)

C[C@H]1CN([C@@H](C)CO)C(=O)c2cccc(NC(=O)c3ccncc3)c2O[C@@H]1CN(C)Cc1ccc(F)c(Cl)c1
AC50 [14]: 0.00198 µM (active)

Cc1cccc(-c2ccc([C@H]3[C@H](CO)N4CCCCN(Cc5cncnc5)C[C@@H]34)cc2)c1
AC50 [14]: 0.198 µM (active)

CC(C)N1C[C@@H](CNCc2ccc(Oc3ccccc3)cc2)Oc2c(NC(=O)c3ccncc3)cccc2C1=O
AC50 [14]: 0.00666 µM (active)

COc1cc2ccc(=O)oc2cc1O [SCOPOLETIN]
GI50 (SN12K1): 19.4 µM (inactive) | AC50 [15]: 4.4 µM (active) | GI50 (P388): 5.55 µM (inactive) | AC50 (Cytochrome P450 1A2): 5.01 µM (inconclusive) | GI50 (P388/ADR): 12.5 µM (inactive) | AC50 [13]: 5.79 µM (active)
